Here are results for three compounds from paper PMC4789278, “Pharmacological inhibition of LSD1 for the treatment of MLL-rearranged leukemia” (Journal of Hematology & Oncology, 2016).

Test [1] addresses T1, recombinant human LSD1 (Homo sapiens, UniProt O60341).
T1 construct: Human LSD1 catalytic domain (172-833) was cloned; made in house; host or cells: E. coli BL21-CodonPlus (Agilent)
The test is described as follows: LSD1 enzyme inhibition assay (HRP/Amplex red). Format: biochemical. The note with it: for Selectivity index for LSD1: LSD1 versus MAO-A and -B. On the procedure: The LSD1 inhibition assay was performed with the reaction rate (i.e., amount of the product H2O2, Additional file 1: Figure S2) being quantitatively determined by adding horseradish peroxidase (HRP) and a HRP fluorescence substrate Amplex red.
Human LSD1 catalytic domain (172-833) was cloned and inserted into pGEX-KG vector. The correctness of insert was verified by sequencing. BL21-CodonPlus strain (Agilent) was transformed with the pGEX-KG-LSD1 plasmid and cultured at 37 °C in LB medium containing ampicillin (50 μg/mL) and chloramphenicol (34 μg/mL). Upon reaching an optical density of ~0.9 at 600 nm, LSD1 expression was induced by adding 0.2 mM isopropylthiogalactoside at 25 °C for 20 h. Cells were harvested, lysed, and centrifuged at 20,000 rpm for 20 min, and the supernatant was collected and subjected to an affinity column chromatography using the glutathione sepharose resin.
The inhibition assay for the recombinant LSD1 was performed using a published protocol, with the reaction rate (i.e., amount of the product H2O2) being quantitatively determined by adding HRP and a HRP fluorescence substrate Amplex red. […] The total volume of the reaction mixture is 60 μL. After 20 min, 60-μL solution containing HRP (0.01 unit) and Amplex red (80 μM) was added and the fluorescence of each well was determined using a Beckman DTX-880 microplate reader (excitation at 535 and emission at 595 nm). Data were imported into Prism 5.0 (GraphPad), and the IC50 values were calculated by using the sigmoidal dose response curve fitting in the software. The reported IC50s were the mean values of at least three independent experiments.

In test [2] the test system is MV4-11 leukemia cells. The experiment in a line: Antiproliferation assay (XTT), MV4-11. The test is classed as cell-based. The note with it: Homo sapiens, MV4-11, 360 h; 15-day treatment; MLL-rearranged leukemia; read-out: MV4-11 EC50 (antiproliferative). On the procedure:
Next, these three compounds were tested for their cellular activity against proliferation of MV4-11 leukemia cells bearing MLL-AF4 fusion oncogene.
(§1) These compounds were incubated with a panel of six human leukemia and solid tumor cell lines, including two MLL-rearranged leukemia cells MV4-11 and Molm-13 containing fusion oncogenes MLL-AF4 and -AF9, respectively. […] Also included in the studies are breast cancer MCF-7 and prostate cancer LNCaP cells.
(§2) Proliferation inhibition assay for suspension leukemia cells was performed using an XTT assay kit (Roche) with our previously described method. Proliferation inhibition assay for solid tumor cell lines MCF-7 and LNCaP was performed using our previous described MTT assay. The antiproliferation EC50 values were determined by Prism, and the reported results were the mean values of at least three independent experiments.
On the technique in general: Tetrazolium assays rely on reduction of a dye to a coloured formazan, in cell work by metabolically active cells.

For test [3], the system named is Molm-13 leukemia cells. The experiment in a line: Antiproliferation assay (XTT), Molm-13. Format: cell-based. Particulars: Homo sapiens, MOLM-13, 360 h; 15-day treatment; MLL-rearranged leukemia; read-out: Molm-13 EC50 (antiproliferative). On the procedure:
as §1, §2

Test [4] has as its system NB4 leukemia cells. The experiment in a line: Antiproliferation assay (XTT), NB4. The test is classed as cell-based. Particulars: Homo sapiens, 360 h; 15-day treatment; non-MLL leukemia cells; read-out: NB4 EC50 (antiproliferative). On the procedure: (§3) We next examined the spectrum of antitumor activity for compounds 1–4. These compounds were incubated with a panel of six human leukemia and solid tumor cell lines, including two MLL-rearranged leukemia cells MV4-11 and Molm-13 containing fusion oncogenes MLL-AF4 and -AF9, respectively. […] Also included in the studies are breast cancer MCF-7 and prostate cancer LNCaP cells. […]
as §2

In test [5] the test system is U937 leukemia cells. The test is described as follows: Antiproliferation assay (XTT), U937. The test is classed as cell-based. Particulars: Homo sapiens, U-937, 360 h; 15-day treatment; non-MLL leukemia cells; read-out: U937 EC50 (antiproliferative). On the procedure: as §3, §2
The subject of test [6] is breast cancer MCF-7 cells. The test is described as follows: Antiproliferation assay (MTT), MCF-7. The test is classed as cell-based. The note with it: Homo sapiens, MCF7, 360 h, 15-day treatment, read-out: MCF-7 EC50 (antiproliferative). On the procedure: as §1, §2
The subject of test [7] is prostate cancer LNCaP cells. The experiment in a line: Antiproliferation assay (MTT), LNCaP. The test is classed as cell-based. The note with it: Homo sapiens, 360 h, 15-day treatment, read-out: LNCaP EC50 (antiproliferative). On the procedure:
as §3, §2

Test [8] has as its target T2, human MAO-A (Homo sapiens, UniProt P21397).
T2 construct: purchased Sigma
T2 sequence (P21397 1-527): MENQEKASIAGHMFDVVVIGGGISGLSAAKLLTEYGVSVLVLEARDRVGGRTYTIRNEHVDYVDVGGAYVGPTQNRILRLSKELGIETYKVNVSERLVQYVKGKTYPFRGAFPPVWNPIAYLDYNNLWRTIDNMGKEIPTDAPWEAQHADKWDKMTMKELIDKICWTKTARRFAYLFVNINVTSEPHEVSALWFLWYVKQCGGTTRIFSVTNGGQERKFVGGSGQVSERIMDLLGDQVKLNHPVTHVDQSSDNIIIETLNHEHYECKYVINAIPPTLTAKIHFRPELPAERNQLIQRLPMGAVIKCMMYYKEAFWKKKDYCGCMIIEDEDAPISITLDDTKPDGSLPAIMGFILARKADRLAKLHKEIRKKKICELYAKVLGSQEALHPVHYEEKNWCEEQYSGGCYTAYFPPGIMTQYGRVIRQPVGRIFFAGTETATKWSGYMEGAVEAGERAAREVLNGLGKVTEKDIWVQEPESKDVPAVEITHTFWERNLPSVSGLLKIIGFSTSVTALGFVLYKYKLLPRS
The experiment in a line: MAO-A inhibition (MAO-Glo). The test is classed as biochemical. Particulars: read-out: MAO-A IC50. On the procedure:
The cyclopropylamine LSD1 inhibitors were generally derived from MAO-A/-B inhibitor tranylcypromine, an antidepression drug. Because MAO-A and -B play important roles in the degradation of neurotransmitters (e.g., serotonin and dopamine) in the central nervous system, selective inhibition for LSD1 is highly desirable.
(§4) Recombinant human MAO-A and -B were purchased from Sigma. The inhibitory activity was determined using MAO-Glo assay kit (Promega). In brief, following the manufacturer’s protocol, assays were performed in 384-well white plates (Corning) using MAO-A or -B (100 nM) with a final volume of 20 μL. Reactions were quenched after 60 min by adding reconstituted luciferin detection reagent (20 μL/well); 20 min after addition of the detection reagent, the luminescence of each well was measured using Beckman DTX-880 microplate reader. IC50 calculation was similar to that of LSD1.

In test [9] the target is T3, human MAO-B (Homo sapiens, UniProt P27338).
T3 construct: purchased Sigma
T3 sequence (P27338 1-520): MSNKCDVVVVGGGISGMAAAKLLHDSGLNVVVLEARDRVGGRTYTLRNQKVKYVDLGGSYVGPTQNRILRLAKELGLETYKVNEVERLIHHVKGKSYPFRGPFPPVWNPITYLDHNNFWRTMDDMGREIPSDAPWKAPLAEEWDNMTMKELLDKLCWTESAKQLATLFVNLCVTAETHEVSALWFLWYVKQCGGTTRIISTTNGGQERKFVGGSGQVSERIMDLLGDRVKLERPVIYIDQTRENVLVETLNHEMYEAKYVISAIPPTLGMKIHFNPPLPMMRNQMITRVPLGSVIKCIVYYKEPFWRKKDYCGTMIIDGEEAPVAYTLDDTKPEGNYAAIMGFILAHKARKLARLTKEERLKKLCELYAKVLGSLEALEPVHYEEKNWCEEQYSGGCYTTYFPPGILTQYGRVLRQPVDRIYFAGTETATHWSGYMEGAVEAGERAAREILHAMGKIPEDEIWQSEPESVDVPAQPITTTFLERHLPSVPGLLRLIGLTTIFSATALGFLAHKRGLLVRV
The experiment in a line: MAO-B inhibition (MAO-Glo). The test is classed as biochemical. On the procedure: Because MAO-A and -B play important roles in the degradation of neurotransmitters (e.g., serotonin and dopamine) in the central nervous system, selective inhibition for LSD1 is highly desirable.
as §4

The subject of test [10] is human primary leukemia cells from an AML patient with MLL-ENL fusion oncogene. The experiment in a line: Colony-forming assay. The test is classed as cell-based. Particulars: 336 h, colonies counted after 14 days, read-out: colony-forming ability EC50. On the procedure:
Colony-forming assay using non-serum culture media represents a useful method to assess self-renewal capacity of stem-like cancer cells. The number of cell colonies formed in the assay reflects the proportion of stem-like cells in a given number of cancer cells. […] Human MLL-rearranged AML samples will be obtained from the Children’s Oncology Group (COG) Biopathology Center, in accordance with the IRB-approved protocol H-24170. The colony-forming assay was performed according to our previously published method. After 14 days, the colony number of each culture dish was counted and imported into Prism 5.0 and EC50 values were determined by using the sigmoidal dose response curve fitting in the software.

In test [11] the test system is MV4-11 leukemia cells. Further details: method as in PMID 22924785. The note with it: read-out: MV4-11 proliferation EC50; cited from earlier work.
Test [12] has as its system Molm-13 leukemia cells. Further details: method as in PMID 22924785. The note with it: read-out: Molm-13 proliferation EC50; cited from earlier work.
Test [13] concerns H3K79 methylation in MV4-11 cells. Further details: method as in PMID 23795283. The note with it: read-out: IC50 for inhibition of H3K79 methylation; cited from earlier work.

SMILES strings stand for the structures. pEC50, pIC50: −log10 of the molar value. Where two headings read alike, the source gives them in different places.

In the case of `CN1CCN(C(=O)CNC2CC2c2ccc(Br)cc2)CC1` (centres unmarked) [Compound 3], the pIC50 (in general, the negative decadic logarithm of the IC50, by convention in mol/L) was 7.46 in test [1], 5.14 in test [8] and 4.79 in test [9]. In test [1], the “selectivity for LSD1 inhibition over MAO-A and -B” value is listed as greater than 200 fold. Moreover, the “Selectivity index for LSD1” value in test [1] was greater than 208. In addition, the pEC50 is 7.70 in test [2]; 6.74 in [3]; less than 4.30 in test [4]; less than 4.30 in [5]; 4.87 in test [6]; 4.52 in test [7]. The pEC50 in [10] was 6.32.

Turning to `NC1CC1c1ccc(-c2ccc(F)nc2)cc1` (centres unmarked) [Compound 4], the pIC50 was 5.28 in [1], 6.38 in [8] and 5.51 in test [9]. The “fold less potent than compound 2 against LSD1” value in [1] is recorded as ~ 70 fold. For the same compound, the “Selectivity index for LSD1” value in test [1] is listed as less than 0.58. Besides, the pEC50 is 5.85 in test [2]; 4.92 in test [3]; less than 4.30 in test [4]; 4.76 in [5]; less than 4.30 in [6]; less than 4.30 in [7].

For the compound `CC(C)N(CCCNC(=O)Nc1ccc(C(C)(C)C)cc1)CC1OC(n2cnc3c(N)ncnc32)C(O)C1O` (centres unmarked) [SYC-522], the values for the pEC50 in test [11] and in [12] were roughly 5.40 and roughly 5.15, respectively. Further, the pIC50 in [13] was roughly 6.70.
